Test results as given in the NIST ThermoML archive (doi:10.1016/j.jct.2013.08.031).

Experiment: mn = molality of the nth substance listed, in mol/kg
Conditions: 74.66 kPa, Liquid, Vibrating tube method

CCCC[N+](CCCC)(C(C)CC)C(C)CC.[Br-] (stereo not given) [N-butyl-N,N-bis(1-methylpropyl)-1-butanaminium bromide] + O
mass density [kg/m3]
Conditions | m1 = 0.01181 | m1 = 0.02026 | m1 = 0.03102 | m1 = 0.04017 | m1 = 0.05043 | m1 = 0.0598 | m1 = 0.06968 | m1 = 0.08191 | m1 = 0.09038 | m1 = 0.1036
298.15 K | 997.635 | 998.067 | 998.623 | 999.106 | 999.638 | 1000.14 | 1000.66 | 1001.3 | 1001.76 | 1002.47
303.15 K | 996.234 | 996.663 | 997.215 | 997.699 | 998.223 | 998.719 | 999.241 | 999.878 | 1000.33 | 1001.03
308.15 K | 994.634 | 995.062 | 995.611 | 996.096 | 996.617 | 997.117 | 997.631 | 998.265 | 998.711 | 999.421

CCCC[N+](CCCC)(CC(C)C)CC(C)C.[Br-] [N-butyl-N,N-bis(2-methylpropyl)-1-butanaminium bromide] + O
mass density [kg/m3]
Conditions | m1 = 0.01065 | m1 = 0.01998 | m1 = 0.0287 | m1 = 0.03815 | m1 = 0.04991 | m1 = 0.05935 | m1 = 0.06884 | m1 = 0.08078 | m1 = 0.0922 | m1 = 0.1044
298.15 K | 997.571 | 998.046 | 998.493 | 998.971 | 999.575 | 1000.05 | 1000.54 | 1001.16 | 1001.72 | 1002.35
303.15 K | 996.173 | 996.647 | 997.094 | 997.573 | 998.175 | 998.652 | 999.131 | 999.751 | 1000.31 | 1000.94
308.15 K | 994.575 | 995.047 | 995.492 | 995.975 | 996.571 | 997.048 | 997.529 | 998.152 | 998.702 | 999.327
